Measurements reported in patent US9549978B2, “Amino acid sequences for controlling pathogens” (CENTRO DE INGENIERIA GENETICA Y BIOTECHNOLOGIA, priority 2011, dated 2017).

Columns and labels:
[1] = tested on: Candida albicans (fungus); test: Microdilution antimicrobial activity (MIC/IC50); format: cell-based; conditions: for MIC: Sabouraund broth, 28° C.; for IC50: read-out: IC50 (peptide concentration that produces 50% of bacterial growth inhibition)
Description: (§1) The peptides of the invention were also obtained by chemical synthesis using methods known to those skilled in this technical field. The antimicrobial activity of the peptides was determined by the microdilution method. To determine the minimum inhibitory concentration (MIC), each peptide was serially diluted 1:2. Ten microliters of each diluted peptide were incubated with 90 μL of the bacteria or yeast suspension (5×10^5 CFU (colony forming units) per mL) in Mueller Hinton broth (bacteria) or Sabouraund broth (fungi) and incubated for 18 h at 28° C. (for fish pathogens and fungi) or 37° C. (for mammalian pathogens). The MIC is defined as the lowest peptide concentration at which inhibition of bacterial growth occurs. All assays were performed in triplicate, and culture medium (without microorganism) and microorganisms to which no peptide was added were used as controls.

E.coli (Gram−) = test: Microdilution antimicrobial activity (MIC/IC50); format: cell-based; conditions: for IC50: read-out: IC50 (peptide concentration that produces 50% of bacterial growth inhibition)
Description: as §1

Vibrio sp. (Gram−) = test: Microdilution antimicrobial activity (MIC/IC50); format: cell-based; conditions: for IC50: read-out: IC50 (peptide concentration that produces 50% of bacterial growth inhibition)
Description: as §1

A. hydrophila (Gram−) = test: Microdilution antimicrobial activity (MIC/IC50); format: cell-based
Description: as §1

[2] = tested on: Pseudomonas aeuroginosa (Gram−); test: Microdilution antimicrobial activity (MIC/IC50); format: cell-based; conditions: for IC50: read-out: IC50 (peptide concentration that produces 50% of bacterial growth inhibition)
Description: as §1

[3] = tested on: Bacillus subtilis (Gram+); test: Microdilution antimicrobial activity (MIC/IC50); format: cell-based; conditions: for IC50: read-out: IC50 (peptide concentration that produces 50% of bacterial growth inhibition)
Description: as §1

[4] = tested on: Staphylococcus aureus (Gram+); test: Microdilution antimicrobial activity (MIC/IC50); format: cell-based; conditions: for MIC: 18 h, Mueller Hinton broth; for IC50: read-out: IC50 (peptide concentration that produces 50% of bacterial growth inhibition)
Description: as §1

[5] = tested on: Edwardsiella tarda (Gram−); test: Microdilution antimicrobial activity (MIC/IC50); format: cell-based; conditions: for IC50: read-out: IC50 (peptide concentration that produces 50% of bacterial growth inhibition)
Description: as §1

Aeromonas hydrophila = test: Resistance to A. hydrophila challenge in tilapia, peptides by intraperitoneal injection; format: in vivo, tilapia (O. niloticus); conditions: LD50 challenge, mortality recorded 7 days, compared to PBS group
Description: We proceeded to evaluate the utility of antimicrobial peptides to enhance disease resistance in vivo. In a first test, we used 130 tilapias (O. niloticus) with a body weight of 10 g, which were randomly distributed in 13 experimental groups of ten animals per group. This assay was performed in order to determine the minimum time of treatment required to enhance the survival of fish against challenge with A. hydrophila. Each peptide was administered at a concentration of 1 μg per fish by intraperitoneal injection, for 2, 4, 8 and 15 days. An additional group was placed which PBS was administered as a control. The experimental groups were:
After the time of peptide administration, we performed a challenge test by intraperitoneal injection of the median lethal dose (LD50) of A. hydrophila, and mortality was recorded during 7 days. We calculated the relative percent of survival (RPS) as: RPS (%)=(% mortality controls−% mortality treated)/(% mortality controls)×100
A second test was performed to determine the optimal dose of peptide required to increase the survival of the fish following challenge with A. hydrophila. We used 130 tilapias (O. niloticus), with a body weight of about 10 g, which were randomly distributed in 13 experimental groups of 10 animals each. Each peptide was administered at a concentration of 0.5, 1, 5 and 10 μg per fish for 15 days. The experimental groups were:
After 15 days of peptide administration, we performed a challenge test by is intraperitoneal injection of the LD50 of A. hydrophila, and mortality was recorded during 7 days. RPS was calculated as described above.

[6] = read-out: EC50 (LPS binding/neutralization); 0.5 EU/ml LPS, 37° C., 30 min, LAL
Description: Besides the antimicrobial activity and the possibility of increase disease resistance, we studied the ability of antimicrobial peptides of the present invention to neutralize LPS, by the Limulus amebocyte lysate (LAL) test. This assay detects the presence of free LPS unneutralized. Various concentrations of peptides were incubated with 0.5 EU/ml of LPS at 37° C. for 30 min. LPS alone was used as positive control of the assay. Subsequently, were added 100 μL of the mixture to equal volume of LAL reagent. The kinetic of the turbidity was measured using the equipment Tube Reader ATi-321 (Lab Kinetics, UK).

OVA [7] = test: Cytokine secretion by OVA-stimulated splenocytes of immunized mice, ELISA; format: in vivo, BALB/c mice
Description: FIG. 8. IFN-γ secretion by spleen cells isolated from immunized animals. […] Bars represent the concentration of IFN-γ±standard deviation (n=5). Statistical analysis of the data was performed by ANOVA test and Bonferroni's multiple comparison test (*: p<0.05, ***:p<0.001).
Animals were immunized on days 0 and 14, and blood extractions were performed on days 0, 14 and 21. The serums of animals were used for determination of specific antibody titers (total IgG, IgG1 and IgG2a). At 59 days from the beginning of the experiment was extracted the spleen from the mice to determine the cellular immune response against the antigen OVA. The spleen was extracted under aseptic conditions and the splenocytes were isolated and were seeded 2.5×10^5 cells, at a cell concentration of 2×10^6 cells/mL in 96-well round bottom plate. Cells were stimulated with Concanavalin A (5 μg/ml) or OVA (10 μg/mL) and incubated at 37° C., 5% CO2 for 4 days. Culture supernatants were collected and used for analysis of the levels of interleukin-4 and interferon-γ by ELISA.

OVA [8] = test: Co-immunization with OVA in mice, second immunization schedule, antibody titers by ELISA; format: in vivo, BALB/c mice
Description: FIG. 7. Titers of total immunoglobulin G (IgG) (A), IgG1 and IgG2a (B) induced in mice by immunization with OVA co-administered with the peptides Oreochromicin I, Oreochromicin II and Oreochromicin III. Male Balb/c mice (8/group) were immunized by intraperitoneal injection on days 0 and 14 with OVA alone (5 μg/animal) or in combination with peptides at the doses of 0.238×10^20 molecules/animal (equivalent to 0.1, 0.12 and 0.14 μg/animal for Oreochromicina I, II and III, respectively) and 2.38×10^20 molecules/animal (equivalent to 1, 1.2 and 1.4 μg/animal for Oreochromicina I, II and III, respectively). The negative control group was injected with 0.1 mL of PBS. The OVA-specific humoral immune response (total IgG) was tested at 14 and 21 days after the first immunization. IgG1 and IgG2a antibody titers were analyzed at 21 days after the first immunization. The OVA-specific antibody titers were determined by ELISA. (A) Total IgG titers. Bars represent the IgG titer standard error (n=8). Statistical analysis was performed using a Kruskal-Wallis test and the Dunn multiple comparison test. Asterisks represent significant differences with the PBS group (* indicates p<0.05, ***indicates p<0.001). (B) IgG1 and IgG2a titers. Bars represent the antibody titer±standard error (n=8). Statistical analysis was performed using Mann Whitney test (*denotes p<0.05).
64 BALB/c male mice were selected, which were 6 weeks old, and were separated into 8 experimental groups of 8 mice each. Administration of the immunogens was is conducted by intraperitoneal injection in a volume of 0.1 mL. The antimicrobial peptides were administered in equimolar amounts (0.238×10^20 molecules and 2.38×10^20 molecules). The experimental groups were:
Animals were immunized on days 0 and 14, and blood extractions were performed on days 0, 14 and 21. The serums of animals were used for determination of specific antibody titers (total IgG, IgG1 and IgG2a). At 59 days from the beginning of the experiment was extracted the spleen from the mice to determine the cellular immune response against the antigen OVA. […]

MY32 = test: Co-immunization with MY32 antigen in tilapia, IgM titers by ELISA; format: in vivo, tilapia (O. niloticus); conditions: MY32 1 μg/g + peptide 10 μg/animal, adjuvanted in Montanide 888; p<0.05
Description: FIG. 9. IgM titers induced by immunization of tilapia (O. niloticus) with MY32 protein co-administered with the antimicrobial peptide Oreochromicin I. Fish (10 fish/group) were immunized by intraperitoneal injection on days 0 and 14. The negative control group was injected with 0.3 mL of PBS. The humoral immune response specific for MY32 was analyzed at 14, 21 and 28 days after the first immunization. The IgM antibody titers specific for MY32 were determined by ELISA. Bars represent the IgM titer±standard error (n=10). Statistical analysis of the data was performed by ANOVA and the Newman-Keuls multiple comparison test (*indicates p<0.05).
To assess the ability of the peptide Oreochromicin I as molecular adjuvant in tilapia was used as vaccine antigen the protein MY32, previously known (Carpio et al. (2011) Vaccine 29: 2810-2820).
Six experimental groups were formed of 10 tilapias (O. niloticus) each with an s average weight of 45 g. The route of administration was intraperitoneal, the immunogen was applied in an injection volume of 0.3 mL. The experimental groups were:
The animals were immunized on days 0 and 14, and blood extractions were performed on days 0, 14, 21 and 28. The serums of the animals were used for the determination of IgM specific antibody titers.

Row | Sequence | MIC [1] | IC50 [1] [µM] | MIC (E.coli (Gram−)) | IC50 (E.coli (Gram−)) [µM] | MIC (Vibrio sp. (Gram−)) | IC50 (Vibrio sp. (Gram−)) [µM] | MIC (A. hydrophila (Gram−)) | MIC [2] | IC50 [2] [µM] | MIC [3] | IC50 [3] [µM] | MIC [4] | IC50 [4] [µM] | MIC [5] | IC50 [5] [µM] | EC50 [6] [µM] | increase in survival (RPS, relative percent of survival) (Aeromonas hydrophila; 1 μg per fish i.p. for 15 days) [%] | also measured
1 | FIHHIIGGLFSAGKAIHRLIRRRRR [Oreochromicin II, also recombinant or chemically synthesized] | MIC = 26.7 μM | 12.9 | MIC = 5 μM | 2.29 | MIC = 15 μM | 2.5 | MIC = 160 μM | MIC = 6.67 μM | 3.75 | MIC = 1.7 μM | 0.589 | MIC = 5 μM | 2.02 | MIC = 20 μM | 2.08 | 1.41 | – | IC50 (A. hydrophila (Gram−); read-out: IC50 (peptide concentration that produces 50% of bacterial growth inhibition)): 30.4 µM; increase in survival (RPS, relative percent of survival) (Aeromonas hydrophila; 1 μg per fish i.p. for 8 days): 48%; levels of secretion of IFN-γ vs OVA or PBS alone (OVA [7]; splenocytes stimulated with OVA, peptide 1.2 μg/animal, p<0.05): significantly higher
2 | FIHHIIGGLFSVGKHIHGLIHGH [Oreochromicin I, also recombinant or chemically synthesized] | MIC = 20 μM | 10.3 | MIC = 6.7 μM | 2.96 | MIC = 80 μM | 7.45 | Did not inhibit | MIC = 35 μM | 29.4 | MIC = 3 μM | 1.37 | MIC = 5 μM | 2.8 | MIC = 160 μM | 11.1 | 1.23 | 45 | titers of specific IgG2a against OVA vs OVA alone (OVA [8]; OVA 5 μg + peptide 1 μg/animal, 21 days after first immunization, p<0.05): significantly greater; specific total IgG titer to OVA vs negative control group (OVA [8]; OVA 5 μg + peptide 1 μg/animal, p<0.001): statistically superior; specific IgM titer against MY32 vs PBS, MY32 and MY32 + peptide 10 μg/fish (MY32): statistically superior
3 | IWDAIFHGAKHFLHRLVNPGGKDAVKDVQQKQ [Oreochromicin III, also recombinant or chemically synthesized] | MIC = 40 μM | 14.1 | Did not inhibit | – | – | 67.4 | Did not inhibit | Did not inhibit | – | MIC = 106 μM | 19.2 | Did not inhibit | – | MIC = 160 μM | 37 | 2.99 | 45 | total IgG titers compared to the negative control group (OVA [8]; OVA 5 μg + peptide 1.4 μg/animal, p<0.05): statistically significant differences; levels of IFN-γ vs OVA or PBS alone (OVA [7]; splenocytes stimulated with OVA 10 μg/mL, dose dependent, p<0.001): significantly higher
